Results taken from ChEMBL document CHEMBL5678818, “Discovery of potent SOS1 inhibitors that block RAS activation via disruption of the RAS-SOS1 interaction” (Proc Natl Acad Sci U S A, 2019).

What was measured:
[1] = biological target: T1, Tyrosine-protein kinase receptor TYRO3 (Homo sapiens) (UniProt Q06418); assay: Inhibition of TYRO3 (unknown origin) assessed as residual activity at 1000 nM by KINOMEscan analysis relative to control
T1 sequence (whole entry): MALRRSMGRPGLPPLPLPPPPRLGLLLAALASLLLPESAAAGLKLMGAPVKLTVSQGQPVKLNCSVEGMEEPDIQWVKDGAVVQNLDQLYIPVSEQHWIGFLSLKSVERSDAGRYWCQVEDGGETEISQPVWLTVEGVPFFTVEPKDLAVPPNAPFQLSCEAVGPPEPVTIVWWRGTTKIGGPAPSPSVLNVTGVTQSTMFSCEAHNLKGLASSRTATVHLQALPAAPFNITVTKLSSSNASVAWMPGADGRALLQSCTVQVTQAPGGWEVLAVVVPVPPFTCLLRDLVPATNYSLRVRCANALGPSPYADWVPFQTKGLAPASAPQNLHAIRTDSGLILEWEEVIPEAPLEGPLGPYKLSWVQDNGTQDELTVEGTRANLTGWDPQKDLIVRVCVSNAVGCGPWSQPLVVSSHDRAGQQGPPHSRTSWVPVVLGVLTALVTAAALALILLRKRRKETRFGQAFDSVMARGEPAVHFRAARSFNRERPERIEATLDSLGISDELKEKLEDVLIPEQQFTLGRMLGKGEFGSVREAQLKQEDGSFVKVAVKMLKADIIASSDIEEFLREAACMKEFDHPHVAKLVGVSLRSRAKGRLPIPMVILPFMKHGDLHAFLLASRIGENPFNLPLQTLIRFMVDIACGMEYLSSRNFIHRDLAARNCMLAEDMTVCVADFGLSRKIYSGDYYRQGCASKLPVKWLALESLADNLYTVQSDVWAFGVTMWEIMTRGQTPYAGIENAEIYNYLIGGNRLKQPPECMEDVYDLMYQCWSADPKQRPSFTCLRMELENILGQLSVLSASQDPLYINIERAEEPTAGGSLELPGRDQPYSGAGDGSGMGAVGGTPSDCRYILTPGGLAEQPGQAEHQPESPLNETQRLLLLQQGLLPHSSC

[2] = biological target: Serine/threonine-protein kinase 35 (Homo sapiens) (UniProt Q8TDR2); assay: Inhibition of STK35 (unknown origin) assessed as residual activity at 1000 nM by KINOMEscan analysis relative to control
[3] = biological target: MAP/microtubule affinity-regulating kinase 3 (Homo sapiens) (UniProt P27448); assay: Inhibition of MARK3 (unknown origin) assessed as residual activity at 1000 nM by KINOMEscan analysis relative to control
[4] = biological target: Mitogen-activated protein kinase kinase kinase 12 (Homo sapiens) (UniProt Q12852); assay: Inhibition of DLK (unknown origin) assessed as residual activity at 1000 nM by KINOMEscan analysis relative to control
[5] = system: Tyrosine-protein kinase ABL1 (Homo sapiens), P00519 [M351T]; assay: Inhibition of phosphorylated ABL1 M351T mutant (unknown origin) assessed as residual activity at 1000 nM by KINOMEscan analysis relative to control
[6] = biological target: Platelet-derived growth factor receptor beta (Homo sapiens) (UniProt P09619); assay: Inhibition of PDGFRB (unknown origin) assessed as residual activity at 1000 nM by KINOMEscan analysis relative to control
[7] = biological target: cAMP-dependent protein kinase catalytic subunit alpha (Homo sapiens) (UniProt P17612); assay: Inhibition of PKAC-alpha (unknown origin) assessed as residual activity at 1000 nM by KINOMEscan analysis relative to control
[8] = biological target: Cyclin-dependent kinase 5 (Homo sapiens) (UniProt Q00535); assay: Inhibition of CDK5 (unknown origin) assessed as residual activity at 1000 nM by KINOMEscan analysis relative to control
[9] = biological target: T2, Dual specificity mitogen-activated protein kinase kinase 7 (Homo sapiens) (UniProt O14733); assay: Inhibition of MKK7 (unknown origin) assessed as residual activity at 1000 nM by KINOMEscan analysis relative to control
T2 sequence (whole entry): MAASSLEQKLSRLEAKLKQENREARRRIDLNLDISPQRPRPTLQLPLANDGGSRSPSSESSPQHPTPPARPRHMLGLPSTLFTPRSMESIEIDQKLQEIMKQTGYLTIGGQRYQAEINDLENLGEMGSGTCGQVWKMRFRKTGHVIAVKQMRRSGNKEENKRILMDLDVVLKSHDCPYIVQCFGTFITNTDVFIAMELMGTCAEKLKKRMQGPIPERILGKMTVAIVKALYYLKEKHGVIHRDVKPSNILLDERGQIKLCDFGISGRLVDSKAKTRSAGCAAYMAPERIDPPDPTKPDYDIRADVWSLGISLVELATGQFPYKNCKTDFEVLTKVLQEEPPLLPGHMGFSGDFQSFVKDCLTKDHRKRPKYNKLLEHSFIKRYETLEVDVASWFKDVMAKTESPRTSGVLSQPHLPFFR

[10] = biological target: Activin receptor type-2A (Homo sapiens) (UniProt P27037); assay: Inhibition of ACVR2A (unknown origin) assessed as residual activity at 1000 nM by KINOMEscan analysis relative to control
[11] = biological target: Dual specificity protein kinase CLK3 (Homo sapiens) (UniProt P49761); assay: Inhibition of CLK3 (unknown origin) assessed as residual activity at 1000 nM by KINOMEscan analysis relative to control
[12] = biological target: Serine/threonine-protein kinase SIK3 (Homo sapiens) (UniProt Q9Y2K2); assay: Inhibition of QSK (unknown origin) assessed as residual activity at 100 nM by KINOMEscan analysis relative to control

Sequence of Activin receptor type-2A (Homo sapiens) (P27037 whole entry): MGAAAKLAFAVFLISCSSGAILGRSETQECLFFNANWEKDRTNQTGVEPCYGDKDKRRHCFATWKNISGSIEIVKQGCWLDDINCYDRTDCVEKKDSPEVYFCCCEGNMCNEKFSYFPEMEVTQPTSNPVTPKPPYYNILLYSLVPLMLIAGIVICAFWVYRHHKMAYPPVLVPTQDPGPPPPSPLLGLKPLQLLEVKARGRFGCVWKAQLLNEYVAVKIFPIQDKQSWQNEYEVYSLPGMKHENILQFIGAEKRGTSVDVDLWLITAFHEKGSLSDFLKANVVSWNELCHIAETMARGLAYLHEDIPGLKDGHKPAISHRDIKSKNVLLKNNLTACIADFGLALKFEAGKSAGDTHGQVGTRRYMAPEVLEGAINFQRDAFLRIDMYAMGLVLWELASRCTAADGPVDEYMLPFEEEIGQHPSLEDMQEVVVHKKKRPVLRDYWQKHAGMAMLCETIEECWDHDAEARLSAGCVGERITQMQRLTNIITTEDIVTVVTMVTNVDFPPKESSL
Sequence of MAP/microtubule affinity-regulating kinase 3 (Homo sapiens) (P27448 whole entry, looked up): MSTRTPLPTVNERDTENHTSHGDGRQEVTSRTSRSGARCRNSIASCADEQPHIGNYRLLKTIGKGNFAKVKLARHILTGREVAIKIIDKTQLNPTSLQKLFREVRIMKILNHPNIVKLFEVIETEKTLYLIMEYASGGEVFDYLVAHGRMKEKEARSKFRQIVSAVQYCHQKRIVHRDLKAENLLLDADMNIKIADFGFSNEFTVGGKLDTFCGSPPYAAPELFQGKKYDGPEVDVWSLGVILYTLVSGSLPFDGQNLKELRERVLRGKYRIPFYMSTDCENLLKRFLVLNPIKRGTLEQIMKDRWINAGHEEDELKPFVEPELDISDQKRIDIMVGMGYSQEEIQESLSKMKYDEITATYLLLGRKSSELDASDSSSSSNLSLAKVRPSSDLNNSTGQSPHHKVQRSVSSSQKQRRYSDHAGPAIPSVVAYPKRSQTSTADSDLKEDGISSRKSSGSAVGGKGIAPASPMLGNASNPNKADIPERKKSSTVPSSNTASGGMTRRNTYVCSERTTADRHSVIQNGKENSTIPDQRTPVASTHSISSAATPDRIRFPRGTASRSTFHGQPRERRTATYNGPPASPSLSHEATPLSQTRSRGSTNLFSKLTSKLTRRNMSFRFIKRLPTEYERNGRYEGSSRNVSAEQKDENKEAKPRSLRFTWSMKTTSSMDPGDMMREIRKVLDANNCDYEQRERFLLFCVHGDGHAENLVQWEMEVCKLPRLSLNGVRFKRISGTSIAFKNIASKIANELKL
Sequence of Serine/threonine-protein kinase 35 (Homo sapiens) (Q8TDR2 whole entry): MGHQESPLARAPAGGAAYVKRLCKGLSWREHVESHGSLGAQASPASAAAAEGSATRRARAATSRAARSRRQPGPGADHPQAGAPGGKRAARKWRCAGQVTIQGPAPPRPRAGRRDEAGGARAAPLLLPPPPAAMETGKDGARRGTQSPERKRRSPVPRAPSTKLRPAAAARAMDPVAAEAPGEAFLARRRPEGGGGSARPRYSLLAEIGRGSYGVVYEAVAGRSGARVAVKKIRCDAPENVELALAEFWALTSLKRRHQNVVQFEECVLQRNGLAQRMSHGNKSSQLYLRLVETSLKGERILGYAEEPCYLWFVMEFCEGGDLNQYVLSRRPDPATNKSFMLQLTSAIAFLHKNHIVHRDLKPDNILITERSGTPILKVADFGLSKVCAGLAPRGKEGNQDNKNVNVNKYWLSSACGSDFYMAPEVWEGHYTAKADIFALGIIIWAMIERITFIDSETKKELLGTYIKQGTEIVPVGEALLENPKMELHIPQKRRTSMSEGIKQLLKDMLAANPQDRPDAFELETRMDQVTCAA
Sequence of Platelet-derived growth factor receptor beta (Homo sapiens) (P09619 whole entry): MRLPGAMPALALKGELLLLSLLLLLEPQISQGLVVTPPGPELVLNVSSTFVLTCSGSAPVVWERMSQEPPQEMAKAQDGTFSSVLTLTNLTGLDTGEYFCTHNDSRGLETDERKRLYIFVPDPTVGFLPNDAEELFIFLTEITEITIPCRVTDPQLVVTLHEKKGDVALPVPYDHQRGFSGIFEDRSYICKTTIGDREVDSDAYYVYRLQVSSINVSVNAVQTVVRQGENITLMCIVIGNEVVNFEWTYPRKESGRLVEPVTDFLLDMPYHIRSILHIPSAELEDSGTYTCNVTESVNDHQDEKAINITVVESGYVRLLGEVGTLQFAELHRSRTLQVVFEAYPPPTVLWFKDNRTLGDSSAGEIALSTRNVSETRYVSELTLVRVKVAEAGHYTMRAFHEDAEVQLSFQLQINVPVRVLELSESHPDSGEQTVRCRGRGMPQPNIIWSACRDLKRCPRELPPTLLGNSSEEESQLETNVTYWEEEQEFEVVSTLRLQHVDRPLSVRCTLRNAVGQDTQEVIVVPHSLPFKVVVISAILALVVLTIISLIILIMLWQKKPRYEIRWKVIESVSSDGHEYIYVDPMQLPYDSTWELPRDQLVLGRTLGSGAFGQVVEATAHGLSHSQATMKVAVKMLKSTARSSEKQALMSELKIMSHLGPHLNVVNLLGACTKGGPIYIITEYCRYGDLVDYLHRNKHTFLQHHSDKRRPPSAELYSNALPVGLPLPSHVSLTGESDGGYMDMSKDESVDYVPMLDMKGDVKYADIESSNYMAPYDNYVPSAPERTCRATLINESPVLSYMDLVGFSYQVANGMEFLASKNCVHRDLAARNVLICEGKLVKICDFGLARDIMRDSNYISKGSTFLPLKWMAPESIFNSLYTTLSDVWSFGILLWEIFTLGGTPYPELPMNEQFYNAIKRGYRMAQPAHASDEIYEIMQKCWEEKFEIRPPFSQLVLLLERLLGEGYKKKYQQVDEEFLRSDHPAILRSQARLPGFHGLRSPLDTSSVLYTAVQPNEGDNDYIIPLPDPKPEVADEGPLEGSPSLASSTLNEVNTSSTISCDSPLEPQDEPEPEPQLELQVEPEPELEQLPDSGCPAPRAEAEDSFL
Sequence of Mitogen-activated protein kinase kinase kinase 12 (Homo sapiens) (Q12852 whole entry, looked up): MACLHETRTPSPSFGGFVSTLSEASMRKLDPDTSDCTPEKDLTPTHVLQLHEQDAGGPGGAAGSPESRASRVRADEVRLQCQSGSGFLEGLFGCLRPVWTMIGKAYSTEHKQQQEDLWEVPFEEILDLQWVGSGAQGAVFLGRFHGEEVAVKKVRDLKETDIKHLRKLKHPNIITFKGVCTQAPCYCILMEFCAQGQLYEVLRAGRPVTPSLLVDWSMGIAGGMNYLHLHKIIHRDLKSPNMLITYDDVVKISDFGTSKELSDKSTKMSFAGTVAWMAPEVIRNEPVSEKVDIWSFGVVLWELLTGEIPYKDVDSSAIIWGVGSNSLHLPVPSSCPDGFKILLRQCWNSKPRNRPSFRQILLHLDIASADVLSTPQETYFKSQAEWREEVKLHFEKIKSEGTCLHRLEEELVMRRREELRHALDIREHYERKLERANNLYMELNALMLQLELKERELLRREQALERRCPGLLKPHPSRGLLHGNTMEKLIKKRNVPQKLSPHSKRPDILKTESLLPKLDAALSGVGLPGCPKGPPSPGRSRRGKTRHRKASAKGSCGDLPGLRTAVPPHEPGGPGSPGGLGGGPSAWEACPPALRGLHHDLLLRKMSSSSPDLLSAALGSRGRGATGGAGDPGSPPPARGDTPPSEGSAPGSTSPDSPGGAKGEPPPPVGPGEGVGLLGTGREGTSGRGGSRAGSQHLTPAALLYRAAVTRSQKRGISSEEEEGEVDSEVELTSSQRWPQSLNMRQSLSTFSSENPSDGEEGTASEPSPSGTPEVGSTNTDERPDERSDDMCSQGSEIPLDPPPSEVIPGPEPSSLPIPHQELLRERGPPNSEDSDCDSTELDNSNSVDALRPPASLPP
Sequence of Cyclin-dependent kinase 5 (Homo sapiens) (Q00535 whole entry, looked up): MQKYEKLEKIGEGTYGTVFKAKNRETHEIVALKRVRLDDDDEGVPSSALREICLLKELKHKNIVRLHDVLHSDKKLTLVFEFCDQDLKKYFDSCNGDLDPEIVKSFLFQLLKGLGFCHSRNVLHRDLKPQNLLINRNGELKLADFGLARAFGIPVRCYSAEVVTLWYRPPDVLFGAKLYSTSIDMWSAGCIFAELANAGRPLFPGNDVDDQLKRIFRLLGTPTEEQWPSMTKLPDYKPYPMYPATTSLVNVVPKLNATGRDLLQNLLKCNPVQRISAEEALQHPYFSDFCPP
Sequence of Dual specificity protein kinase CLK3 (Homo sapiens) (P49761 whole entry, looked up): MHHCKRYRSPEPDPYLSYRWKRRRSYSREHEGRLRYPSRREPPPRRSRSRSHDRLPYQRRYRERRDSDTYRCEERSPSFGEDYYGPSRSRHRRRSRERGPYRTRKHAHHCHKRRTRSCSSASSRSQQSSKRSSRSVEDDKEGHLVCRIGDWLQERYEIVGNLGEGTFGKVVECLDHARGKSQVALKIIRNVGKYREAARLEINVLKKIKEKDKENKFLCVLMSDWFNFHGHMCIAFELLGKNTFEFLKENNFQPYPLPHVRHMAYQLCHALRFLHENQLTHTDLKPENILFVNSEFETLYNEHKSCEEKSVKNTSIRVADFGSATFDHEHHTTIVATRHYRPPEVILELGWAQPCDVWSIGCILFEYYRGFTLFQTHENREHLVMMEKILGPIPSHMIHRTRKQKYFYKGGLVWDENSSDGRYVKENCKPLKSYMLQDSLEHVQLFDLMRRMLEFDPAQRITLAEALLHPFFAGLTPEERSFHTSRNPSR

Row | SMILES | Activity [1] | Activity [2] | Activity [3] | Activity [4] | Activity [5] | Activity [6] | Activity [7] | Activity [8] | Activity [9] | Activity [10] | Activity [11] | Activity [12]
1 | COc1cc2nc(C)nc(N[C@H](C)c3cccc(-c4cn[nH]c4)c3)c2cc1OC | 66% | 92% | 100% | 95% | 97% | 100% | 97% | 94% | 98% | 90% | 81% | 
2 | COc1cc2ncnc(N[C@H](C)c3cccc4ccccc34)c2cc1OC | 90% | 100% | 64% | 92% | 97% | 94% | 95% | 100% | 77% | 100% | 100% | 94%
